Source: patent publication US5591741A, “Fungicidal spiroheterocyclic derivatives” (American Cyanamid Company, priority 1993, dated 1997)

Assays:
Rhizoctonia solani = experiment: Activity against Rhizoctonia in-vitro (RSI); format: cell-based; details: 10 ppm, 10 days, 20° C., mycelial growth
Description: (i) Activity against Rhizoctonia in-vitro (Rhizoctonia solani: RSI) This test measures the in-vitro activity of compounds against R. solani that causes stem and root rots. The test compound in acetone is added into 4 ml aliquots of half strength Potato Dextrose Broth dispensed in 25-compartment petri dishes to give final concentrations of 10 ppm. The fungal inoculum consists of mycelial fragments of R. solani growth in half strength PDB in shaken culture flasks and added to the broth to provide 5×10^4 fragments/ml broth. Petri dishes are incubated at 20° C. for 10 days until the assessment of mycelial growth. The extent of disease control in all the above tests is expressed as a rating compared with either an untreated control or a diluent-sprayed-control, according to the criteria: […]

[1] = system: Pseudocercosporella herpotrichoides; experiment: Activity against wheat eyespot in-vitro (PHI); format: cell-based; details: 10 ppm, 10 days, 20° C., mycelial growth
Description: (h) Activity against wheat eyespot in-vitro (Pseudocercosporella herpotrichoides; pHI) This test measures the in vitro activity of compounds against the fungus causing wheat eyespot. The test compound is dissolved or suspended in acetone and is added into 4 ml aliquots of half strength Potato Dextrose Broth (PDB) dispended in 25-compartment petri dishes to give a final concentration of 10ppm. The fungal inoculum consists of mycelial fragments of P. herpotrichoides grown in half strength PDB in shaken flasks and added to the broth to provide 5×10^4 fragments/ml broth. Petri dishes are incubated at 20° C. for 10 days until the assessment of mycelial growth. The extent of disease control in all the above tests is expressed as a rating compared with either an untreated control or a diluent-sprayed-control, according to the criteria: […]

Botrytis cinerea = experiment: Direct protectant activity against broad bean grey mould (BCB); format: in vivo; details: direct protectant foliar spray, 600 ppm, 4 days
Description: (c) Direct protectant activity against broad bean grey mould (Botrytis cinerea; BCB) The test is a direct protectant foliar spray. The upper surfaces of leaves of broad bean plants with two leaf pairs (cv The Sutton) are sprayed with the test compound at a dosage of 600 ppm using an automated sprayline as described under (a). 24 hours after spraying the leaves are inoculated with an aqueous suspension containing 10^6 conidia/ml. For 4 days after inoculation plants are kept in a high humidity compartment at 22° C. Disease is assessed 4 days after inoculation, based on the percentage of leaf surface area covered by lesions. The extent of disease control in all the above tests is expressed as a rating compared with either an untreated control or a diluent-sprayed-control, according to the criteria: […]

[2] = system: Erysiphe graminis f.sp. hordei; experiment: Activity against barley powdery mildew, direct therapeutic (EGT); format: in vivo; details: direct therapeutic foliar spray, 600 ppm, up to 7 days
Description: (e) Activity against barley powdery mildew (Erysiphe graminis f.sp. hordei; EGT) The test is a direct therapeutic foliar spray. Leaves of barley seedlings, (cv. Golden Promise) at the single leaf stage are inoculated by dusting with mildew conidia one day prior to treatment with the test compound. The inoculated plants are kept overnight at glasshouse ambient temperature (18° C.) and humidity (40%) prior to treatment. The plants are sprayed with the test compound at a dosage of 600 ppm using an automated sprayline as described under (a). After drying, plants are returned to a compartment at 18° C. and 40% humidity for up to 7 days. Assessment is based on the percentage of leaf area covered by sporulation compared with that on leaves of control plants. The extent of disease control in all the above tests is expressed as a rating compared with either an untreated control or a diluent-sprayed-control, according to the criteria: […]

[3] = system: Erysiphe graminis f.sp. hordei; experiment: Direct protectant activity against barley powdery mildew (EGP); format: in vivo; details: direct protectant foliar spray, 8 days
Description: (f) Direct protectant activity against barley powdery mildew (Erysiphe graminis f.sp. hordei; EGP) The test is a direct protectant foliar spray. Leaves of barley seedlings (cv Golden Promise) at the single leaf stage are sprayed with the test compound as described under (a). After drying, the plants are kept for 24 hours in a glasshouse at 18° C. and 40% R.H. Then the plants are inoculated by dusting with mildew conidia and kept at 18° C. and 40% R.H. for 8 days. Assessment is based on the percentage of leaf area covered by sporulation compared with that on leaves of control plants. The extent of disease control in all the above tests is expressed as a rating compared with either an untreated control or a diluent-sprayed-control, according to the criteria: […]

Phytophthora infestans = format: in vivo; details: tomato, direct protectant foliar spray
Alternaria solani = experiment: Activity against tomato early blight (AS); format: in vivo; details: Table VI; tomato seedlings, contact prophylactic foliar spray, 4 days
Description: b) Activity against tomato early blight (Alternaria solani; AS) This test measures the contact prophylactic activity of test compounds applied as a foliar spray. Tomato seedlings (cv Outdoor Girl) are grown to the stage at which the second true leaf is expanded. The plants are treated using an automated sprayline as described under (a). Test compounds are applied as solutions or suspensions in a mixture of acetone and water (50:50 v/v) containing 0.04% surfactant ("TWEEN 20"--Trade Mark). After drying the plants are kept for 24 hours in a glasshouse at 20° C. and 40% R.H., followed by inoculation of the leaf upper surfaces with a suspension of A. solani conidia containing 10^4 spores/ml. For 4 days after inoculation plants are kept moist in a humidity compartment at 21° C. Disease is assessed 4 days after inoculation, based on the percentage of leaf surface area covered by lesions when compared with control plants. The extent of disease control in all the above tests is expressed as a rating compared with either an untreated control or a diluent-sprayed-control, according to the criteria: […]

Plasmopara viticola = experiment: Antisporulant activity against vine downy mildew (PVA); format: in vivo; details: vine leaves, antisporulant foliar spray, 600 ppm, 750 l/ha
Description: (a) Antisporulant activity against vine downy mildew (Plasmopara viticola; PVA) The test is a direct antisporulant one using a foliar spray. The lower surfaces of leaves of whole vine plants (cv Cabernet Sauvignon), approximately 8 cm high, are inoculated by spraying with an aqueous suspension containing 5×10^4 zoosporangia/ml. The inoculated plants are kept for 24 hours at 21° C. in a high humidity compartment, then 24 hours at glasshouse ambient temperature and humidity. Infected leaves are sprayed on their lower surfaces with a solution of active material in 1:1 water/acetone containing 0.04% "TWEEN 20" (Trade Mark; a polyoxyethylene sorbitan ester surfactant). Plants are treated using an automated sprayline with an atomising nozzle. The concentration of the compound is 600 ppm, and the spray volume is 750 l/ha. After spraying, the plants are returned to normal glasshouse conditions for 96 hours and are then transferred to the high humidity compartment for 24 hours to induce sporulation. Assessment is based on the percentage of the leaf area covered by sporulation compared with that on control leaves. The extent of disease control in all the above tests is expressed as a rating compared with either an untreated control or a diluent-sprayed-control, according to the criteria: […]

Leptosphaeria nodorum = experiment: Activity against wheat leafspot (LN); format: in vivo; details: direct therapeutic foliar spray, 600 ppm, 6-8 days
Description: (d) Activity against wheat leafspot (Leptosphaeria nodorum; LN.) The test is a direct therapeutic foliar spray. Leaves of wheat plants (cv Norman), at the single leaf stage, are inoculated by spraying with an aqueous suspension containing 1.5×10^6 conidia/ml. The inoculated plants are kept for 24 hours in a high humidity compartment prior to treatment. The plants are sprayed with a solution of the test compound at a dosage of 600 ppm using an automated sprayline as described under (a). After drying, the plants are kept for 6-8 days at 22° C. and moderate humidity (70%). Assessment is based on the density of lesions per leaf compared with that on leaves of control plants. The extent of disease control in all the above tests is expressed as a rating compared with either an untreated control or a diluent-sprayed-control, according to the criteria: […]

Venturia inaequalis = experiment: Activity against apple scab in-vitro (VII); format: cell-based; details: 10 ppm, 10 days, 20° C., mycelial growth
Description: (j) Activity against apple scab in-vitro (Venturia inaequalis: VII) This test measures the in-vitro activity of compounds against V. inaequalis that causes apple scab. The test compound in acetone is added into 4 ml aliquots of half strength Potato Dextrose Broth dispensed in 25-compartment petri dishes to give final concentrations of 10 ppm. The fungal inoculum consists of mycelial fragments and spores of V. inaequalis grown on malt agar and added to the broth to provide 5×10^4 propagules/ml broth. Petri dishes are incubated at 20° C. for 10 days until the assessment of mycelial growth. The extent of disease control in all the above tests is expressed as a rating compared with either an untreated control or a diluent-sprayed-control, according to the criteria: […]

Pyricularia oryzae = format: in vivo; details: rice seedlings, direct therapeutic foliar spray, 600 ppm, 4-5 days

SMILES: CC1CC(C)CN(C2COC3(CCC(C(C)(C)C)CC3)C2)C1 (stereo not drawn) [Compound 15]
- disease control rating RSI (Rhizoctonia solani): 0 (less than 50% disease control)
- disease control rating PHI [1]: 0 (less than 50% disease control)
- disease control rating BCB (Botrytis cinerea): 0 (less than 50% disease control)
- disease control rating EGT [2]: 2 (greater than 80% disease control)
- disease control rating EGP [3]: 2 (greater than 80% disease control)
- disease control rating PIP (Phytophthora infestans): 0 (less than 50% disease control)
- disease control rating AS (Alternaria solani): 0 (less than 50% disease control)
- disease control rating PVA (Plasmopara viticola): 0 (less than 50% disease control)
- disease control rating LN (Leptosphaeria nodorum): 0 (less than 50% disease control)
- disease control rating VII (Venturia inaequalis): 2 (greater than 80% disease control)
- disease control rating PO (Pyricularia oryzae): 0 (less than 50% disease control)

SMILES: CC(C)(C)C1CCC2(CC1)CC(NCc1ccc(F)cc1)CO2 (stereo not drawn) [Compound 30]
- disease control rating RSI (Rhizoctonia solani): 0 (less than 50% disease control)
- disease control rating PHI [1]: 0 (less than 50% disease control)
- disease control rating BCB (Botrytis cinerea): 0 (less than 50% disease control)
- disease control rating EGT [2]: 2 (greater than 80% disease control)
- disease control rating EGP [3]: 2 (greater than 80% disease control)
- disease control rating PIP (Phytophthora infestans): 0 (less than 50% disease control)
- disease control rating AS (Alternaria solani): 0 (less than 50% disease control)
- disease control rating PVA (Plasmopara viticola): 0 (less than 50% disease control)
- disease control rating LN (Leptosphaeria nodorum): 0 (less than 50% disease control)
- disease control rating VII (Venturia inaequalis): 2 (greater than 80% disease control)
- disease control rating PO (Pyricularia oryzae): 0 (less than 50% disease control)

SMILES: CC(C)(C)C1CCC2(CC1)CC(Nc1ccccc1)CO2 (stereo not drawn) [Compound 22]
- disease control rating RSI (Rhizoctonia solani): 0 (less than 50% disease control)
- disease control rating PHI [1]: 0 (less than 50% disease control)
- disease control rating BCB (Botrytis cinerea): 0 (less than 50% disease control)
- disease control rating EGT [2]: 1 (about 50-80% disease control)
- disease control rating EGP [3]: 1 (about 50-80% disease control)
- disease control rating PIP (Phytophthora infestans): 0 (less than 50% disease control)
- disease control rating AS (Alternaria solani): 0 (less than 50% disease control)
- disease control rating PVA (Plasmopara viticola): 0 (less than 50% disease control)
- disease control rating LN (Leptosphaeria nodorum): 0 (less than 50% disease control)
- disease control rating VII (Venturia inaequalis): 0 (less than 50% disease control)
- disease control rating PO (Pyricularia oryzae): 0 (less than 50% disease control)

SMILES: CCN(C1COC2(CCC(C(C)(C)C)CC2)C1)C1CC2CCC1C2 (stereo not drawn) [Compound 129]
- disease control rating RSI (Rhizoctonia solani): 0 (less than 50% disease control)
- disease control rating PHI [1]: 0 (less than 50% disease control)
- disease control rating BCB (Botrytis cinerea): 0 (less than 50% disease control)
- disease control rating EGT [2]: 2 (greater than 80% disease control)
- disease control rating EGP [3]: 2 (greater than 80% disease control)
- disease control rating PIP (Phytophthora infestans): 0 (less than 50% disease control)
- disease control rating AS (Alternaria solani): 0 (less than 50% disease control)
- disease control rating PVA (Plasmopara viticola): 0 (less than 50% disease control)
- disease control rating LN (Leptosphaeria nodorum): 0 (less than 50% disease control)
- disease control rating VII (Venturia inaequalis): 1 (about 50-80% disease control)
- disease control rating PO (Pyricularia oryzae): 0 (less than 50% disease control)

SMILES: CC(C)(C)C1CCC2(CC1)CC(NCc1ccccc1)CO2 (stereo not drawn) [Compound 31]
- disease control rating RSI (Rhizoctonia solani): 0 (less than 50% disease control)
- disease control rating PHI [1]: 0 (less than 50% disease control)
- disease control rating BCB (Botrytis cinerea): 0 (less than 50% disease control)
- disease control rating EGT [2]: 2 (greater than 80% disease control)
- disease control rating EGP [3]: 2 (greater than 80% disease control)
- disease control rating PIP (Phytophthora infestans): 0 (less than 50% disease control)
- disease control rating AS (Alternaria solani): 1 (about 50-80% disease control)
- disease control rating PVA (Plasmopara viticola): 2 (greater than 80% disease control)
- disease control rating LN (Leptosphaeria nodorum): 0 (less than 50% disease control)
- disease control rating VII (Venturia inaequalis): 1 (about 50-80% disease control)
- disease control rating PO (Pyricularia oryzae): 0 (less than 50% disease control)

SMILES: CC(C)(C)C1CCC2(CC1)CC(N1CCCCCC1)CO2 (stereo not drawn) [Compound 21]
- disease control rating RSI (Rhizoctonia solani): 0 (less than 50% disease control)
- disease control rating PHI [1]: 0 (less than 50% disease control)
- disease control rating BCB (Botrytis cinerea): 2 (greater than 80% disease control)
- disease control rating EGT [2]: 2 (greater than 80% disease control)
- disease control rating EGP [3]: 2 (greater than 80% disease control)
- disease control rating PIP (Phytophthora infestans): 0 (less than 50% disease control)
- disease control rating AS (Alternaria solani): 0 (less than 50% disease control)
- disease control rating PVA (Plasmopara viticola): 0 (less than 50% disease control)
- disease control rating LN (Leptosphaeria nodorum): 0 (less than 50% disease control)
- disease control rating VII (Venturia inaequalis): 1 (about 50-80% disease control)
- disease control rating PO (Pyricularia oryzae): 0 (less than 50% disease control)
